In patent US20080300243A1, “Amide Derivatives as Ion-Channel Ligands and Pharmaceutical Compositions and Methods of Using the Same” (priority 2005, published 2008):

Experiments:
[1] = target: T1, VR1 (Homo sapiens, UniProt Q8NER1); experiment: Calcium uptake assay, low pH (proton) stimulus; assay type: cell-based; parameters: expressed in transfected cells; host or cells: T-REx HEK 293 (Invitrogen), pcDNA5/TO vector; settings: HEK293; 0.3 μM compound; low pH agonist; HEK 293 cells expressing hVR1; read-out: Low pH % Inhib. @ 0.3 μM
Target sequence in this assay (Q8NER1 whole entry): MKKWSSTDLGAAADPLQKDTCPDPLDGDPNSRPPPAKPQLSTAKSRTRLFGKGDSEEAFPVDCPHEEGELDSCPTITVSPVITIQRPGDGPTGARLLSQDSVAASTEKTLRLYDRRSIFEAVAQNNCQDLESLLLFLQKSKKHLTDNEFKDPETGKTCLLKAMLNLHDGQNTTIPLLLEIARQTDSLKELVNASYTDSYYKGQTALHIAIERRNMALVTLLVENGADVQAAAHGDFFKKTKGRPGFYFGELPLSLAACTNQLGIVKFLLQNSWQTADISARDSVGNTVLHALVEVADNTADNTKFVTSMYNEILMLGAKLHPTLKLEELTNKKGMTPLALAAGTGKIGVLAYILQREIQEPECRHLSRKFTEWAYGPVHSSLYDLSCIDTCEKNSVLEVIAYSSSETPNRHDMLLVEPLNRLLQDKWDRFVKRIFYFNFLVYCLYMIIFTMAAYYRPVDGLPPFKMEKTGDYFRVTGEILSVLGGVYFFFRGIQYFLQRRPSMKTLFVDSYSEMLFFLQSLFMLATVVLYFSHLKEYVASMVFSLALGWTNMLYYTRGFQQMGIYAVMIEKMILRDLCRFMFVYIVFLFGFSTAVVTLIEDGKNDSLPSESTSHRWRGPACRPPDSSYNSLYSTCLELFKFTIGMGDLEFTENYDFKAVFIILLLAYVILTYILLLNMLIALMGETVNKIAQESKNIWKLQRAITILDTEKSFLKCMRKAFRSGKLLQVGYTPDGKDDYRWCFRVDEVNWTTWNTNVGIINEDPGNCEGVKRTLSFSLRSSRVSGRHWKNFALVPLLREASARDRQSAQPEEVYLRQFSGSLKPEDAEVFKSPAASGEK

[2] = target: T1, VR1; experiment: Acid stimulation assay (FDSS 6000); assay type: cell-based; parameters: host or cells: unspecified cell suspension; settings: final assay buffer pH5.8, 15 min pre-incubation
Method: The Acid-induced changes in the intracellular calcium concentration were monitored using FDSS 6000 (Hamamatsu Photonics, Japan), a fluorometric imaging system. The cell suspension in resting buffer (HBSS supplemented with […], pH 7.4) was pre-incubated with varying concentrations of the test compounds or resting buffer (buffer control) for 15 minutes at room temperature under dark conditions. The cells were automatically added the stimulating solution (HBSS supplemented with MES, final assay buffer pH5.8) by the FDSS 6000.
Target sequence in this assay (Q8NER1 whole entry, species assumed): as the sequence (Q8NER1 whole entry) above

[3] = Half-life in human liver microsomes (HLM); assay type: in vitro ADME; settings: human, human liver microsomes (HLM, HL101), pH 7.4; 1 μM compound, 0.78 mg/mL HLM, 37° C., NADPH
Method: Test compounds (1 μM) were incubated with 3.3 mM MgCl2 and 0.78 mg/mL HLM (HL101) in 100 mM potassium phosphate buffer (pH 7.4) at 37° C. on the 96-deep well plate. The reaction mixture was split into two groups, a non-P450 and a P450 group. NADPH was only added to the reaction mixture of the P450 group. An aliquot of samples of P450 group was collected at 0, 10, 30, and 60 min time point, where 0 min time point indicated the time when NADPH was added into the reaction mixture of P450 group. An aliquot of samples of non-P450 group was collected at −10 and 65 min time point. Collected aliquots were extracted with acetonitrile solution containing an internal standard. The precipitated protein was spun down in centrifuge (2000 rpm, 15 min). The compound concentration in supernatant was measured by LC/MS/MS system.
The half-life value was obtained by plotting the natural logarithm of the peak area ratio of compounds/internal standard versus time. The slope of the line of best fit through the points yields the rate of metabolism (k). This was converted to a half-life value using following equations:
Exemplary compounds of the invention were tested (1 μM), and were incubated with 3.3 mM MgCl2 and 0.78 mg/mL HLM (HL101) in 100 mM potassium phosphate buffer (pH 7.4) at 37° C. on the 96-deep well plate. The reaction mixture was split into two groups, a non-P450 and a P450 group. NADPH was only added to the reaction mixture of the P450 group. An aliquot of samples of the P450 group was collected at 0, 10, 30, and 60 minute time points, where the 0 minute time point indicated the time when NADPH was added into the reaction mixture of the P450 group. An aliquot of samples of the non-P450 group was collected at −10 and 65 minute time points. Collected aliquots were extracted with an acetonitrile solution containing an internal standard. The precipitated protein was spun down in a centrifuge (2000 rpm, 15 rain). The compound concentration in supernatant was measured by LC/MS/MS system. The half-life value (T1/2) was obtained by plotting the natural logarithm of the peak area ratio of compounds/internal standard versus time. The slope of the line of best fit through the points yields the rate of metabolism (k). This was converted to a half-life value using following equations: Half-life=ln 2/k.

inhibition at 0.3 µM [1] [%]	IC50 [2] [nM]	half-life at 1 μM [3] [h]	Compound
116	5		O=C(Nc1ccc2c(c1)OC[C@@H](CO)O2)c1ccc(/C=C/C(F)(F)F)cc1 [Compound 107]
74	3		Cc1cc(C#CC(C)(C)C)ccc1C(=O)Nc1ccc2[nH]cnc2c1 [Compound 214]
103	3		O=C(Nc1ccc2c(c1)OC[C@H](CO)N2)c1ccc(/C=C/C(F)(F)F)cc1F [Compound 193]
108	3		CC(C)(C)C#Cc1ccc(C(=O)Nc2ccc3c(c2)OC[C@@H](CO)N3)c(F)c1 [Compound 170]
99	8		CC(C)(C)C#Cc1cc(F)c(C(=O)Nc2cccc3cnccc23)c(F)c1 [Compound 166]
89	4		COc1c(C#CC(C)(C)C)ccc(C(=O)Nc2cccc3cnccc23)c1F [Compound 176]
107	3		Cc1cc(C#CC(C)(C)C)ccc1C(=O)Nc1ccc2sc(CO)nc2c1 [Compound 197, N-(2-(hydroxymethyl)benzo[d]thiazol-5-yl)-2-methyl-4-(3,3-dimethylbut-1-ynyl)benzamide]
107	3		CC(C)(C)C#Cc1ccc(C(=O)Nc2ccc3c(c2)OCC(CO)N3)c(F)c1 (stereo not shown) [Compound 138]
102		0.64	Cc1cc(C#CC(C)(C)C)ccc1C(=O)Nc1ccc2c(c1)OC[C@@H](CO)N2 [Compound 184]
105		1.18	O=C(Nc1ccc2c(c1)OCC(CO)N2)c1ccc(/C=C/C(F)(F)F)cc1F (stereo not shown) [Compound 144]
102	3		Cc1cc(C#CC(C)(C)C)ccc1C(=O)Nc1ccc2c(c1)OC[C@H](CO)N2 [Compound 194]
109		0.42	CCOc1cc(C(=O)Nc2cccc3cnccc23)ccc1C#CC(C)(C)C [Compound 65]
107		1.43	CC(C)(C)C#Cc1ccc(C(=O)Nc2ccc3c(c2)OCC(CO)N3)c(Cl)c1 (stereo not shown) [Compound 158]
19		1.88	COc1cc(/C=C/C(F)(F)F)ccc1C(=O)Nc1ccc2c(c1)OCCO2 [Compound 123]
91		0.28	O=C(Nc1ccc2c(c1)OC[C@@H](CO)O2)c1ccc(C#CC2CC2)cc1 [Compound 104]
83		1.34	Cc1nc2cc(NC(=O)c3ccc(/C=C/C(F)(F)F)cc3C)ccc2s1 [Compound 188]
102		0.3	CC(C)(C)C#Cc1ncc(C(=O)Nc2ccc3c(c2)OCCN3)cn1 [Compound 95]
92		0.31	O=C(Nc1ccc2c(c1)OC[C@H](CO)O2)c1ccc(C#CC2CC2)cc1 [Compound 103]
97		1.15	O=C(Nc1ccc2c(c1)OCCO2)c1ccc(/C=C/C(F)(F)F)cc1 [Compound 34]
112		1.01	Cc1cc(C#CC2CC2)ccc1C(=O)Nc1ccc2c(c1)OCC(CO)N2 (stereo not shown) [Compound 124]
104		1.72	O=C(Nc1ccc2c(c1)OCC(CO)N2)c1c(F)cc(C#CC2CC2)cc1F (stereo not shown) [Compound 129]
108		1.56	O=C(Nc1ccc2c(c1)OCCN2)c1ccc(/C=C/C(F)(F)F)cc1F [Compound 134]
104		1.97	Cc1cc(/C=C/C(F)(F)F)ccc1C(=O)Nc1ccc2c(c1)OCC(CO)N2 (stereo not shown) [Compound 131]
99		0.33	O=C(Nc1cccc2cnccc12)c1ccc(C#CC2CC2)cc1 [Compound 48]
88		0.8	O=C(Nc1ccc2c(c1)OCC(CO)O2)c1ccc(C#CC2CCCC2)cc1 (stereo not shown) [Compound 112]
89		1.43	Cc1nc2cc(NC(=O)c3ccc(C#CC(C)(C)C)cc3C)ccc2s1 [Compound 162]
